In patent US5874597A, “Certain aminosterol compounds and pharmaceutical compositions including these compounds” (priority 1995, dated 1999):

Key:
HM = HM MTT assay; type: cell-based; settings: Table II; read-out: HM MTT assay, Minimum Effective Concentration
[1] = test system: vitelline capillaries of chick embryo; experiment: chick embryo vitelline capillary regression assay; type: in vivo; settings: Table II
Procedure: Using the chick embryo vitelline capillaries assay, compounds were tested for their ability to induce capillary regression. Each compound was applied in 0.1 ml of 15% Ficol 400 and PBS onto the embryo, and vascular regression was assessed after 60 minutes.
The 3-day chick embryo consists of an embryonic disc from which numerous vessels emerge and return, forming a "figure 8"-shaped structure--the embryo in the center with vascular loops extending outward over both poles. […] Following a lag period of around 15 minutes, the constriction of continuity between capillary and secondary vessels, generally on the "venous" side, was observed. Continued pulsatile blood flow progressed, resulting in a "swelling" of the blind tube, followed by a pinching off of the remaining connection and formation of an enclosed vascular sac resembling a "blood island." This process progressed until only the largest vessels remained intact.

With `CC(CCC(=O)O)[C@H]1CCC2C3C(CC[C@@]21C)[C@@]1(C)CC[C@@H](NCCCNCCCCN)CC1C[C@H]3O` (single isomer, unassigned) the minimal effective concentration (HM) was 58.6 µg/mL and the “Chick embryo diss. assay, Minimum Effective Concentration” value [1] was 0.01 µg.
